Patent US8242166B2, “C(10) ethyl ester and C(10) cyclopropyl ester substituted taxanes” (Florida State University Research Foundation, Inc., priority 2008, dated 2012)
“And” between values parts separate entries of the source, which are not always exact repeats. Equal values may be shown once. Read-outs that look alike come from different tables or passages of the source.

What was measured:
[1] = tested on: HCT116; experiment: MTT cytotoxicity (IC50), HCT116; format: cell-based; conditions: Homo sapiens, HCT-116, 72 h, read-out: IN Vitro IC50 (nm) HCT116
Protocol: (§1) All cell lines were maintained in RPMI-1640 tissue culture medium (TCM, supplemented with antibiotics and 10% fetal bovine serum) and cultured at 37° C. in humidified air containing 5% CO2. To assess the antiproliferative effects of the test compounds, 172 μL of tumor cell suspension (1.45×10^4 cells/ml) were added to each well of a 96-well plate and incubated for 24 h at 37° C. in 5% CO2 in air to allow cells to adhere. Seven 2-fold drug dilutions in TCM/DMSO were performed in triplicate in separate 96-well plates and 28 μL was transferred to the wells containing tumor cells (200 μL final volume/0.1% DMSO). Plates were incubated for 72 h and cell viability was determined by adding 50 μL of warm TCM containing 5 mg/mL MTT (3-[4,5-dimethylthiazol-2-yl]-2,5-diphenyltetrazolium bromide) to each well and incubating for 1 h at 37° C. Plates were processed and the absorbances of the resulting solutions were measured by a plate reader at 570 nm. […] (GraphPad Prism version 4.00 for Windows). Studies were conducted by Taxolog, Inc., Tallahassee, Fla.

[2] = tested on: 786-0; experiment: MTT cytotoxicity (IC50), 786-0; format: cell-based; conditions: Homo sapiens
Protocol: as §1, with “Compound 17932 was tested in four of these cell lines, while the remaining compounds were tested in all of these cell lines. All” for “All”

[3] = tested on: A549; experiment: MTT cytotoxicity (IC50), A549; format: cell-based; conditions: Homo sapiens, 72 h, read-out: IN Vitro IC50 (nm) A549
Protocol: as §1, with “Compound 17932 was tested in four of these cell lines, while the remaining compounds were tested in all of these cell lines. All” for “All”

[4] = tested on: MALME-3; experiment: MTT cytotoxicity (IC50), MALME-3; format: cell-based; conditions: Homo sapiens, 72 h, read-out: IN Vitro IC50 (nm) Malme3
Protocol: as §1, with “Compound 17932 was tested in four of these cell lines, while the remaining compounds were tested in all of these cell lines. All” for “All”

[5] = tested on: HOP-18; experiment: MTT cytotoxicity (IC50), HOP-18; format: cell-based; conditions: Homo sapiens, 72 h, read-out: IN Vitro IC50 (nm) HOP18
Protocol: as §1, with “Compound 17932 was tested in four of these cell lines, while the remaining compounds were tested in all of these cell lines. All” for “All”

[6] = tested on: SKMES lung tumors; experiment: SKMES xenograft study, i.v. single dose (Example 20); format: in vivo, nude mice; conditions: 30 mg/kg iv qd × 1
Protocol: This study was conducted at PRC as previously described. SKMES is a human lung cancer cell line. In the present study, compound 2 and all agents were administered as i.v. monotherapies in a single 30 mg/kg dose (qd×1). […] Control mice received this vehicle qd×1. […] The endpoint volume for tumor growth was 1,500 mm^3. The study was terminated on Day 23.

[7] = tested on: HT29 human tumor xenografts; experiment: HT29 xenograft study e133 (Example 24); format: in vivo, nude mice; conditions: 30 mg/kg iv Q7d × 3; n=6
Protocol: […]. Control mice received the 5% E 95% L-II vehicle q4d×4. A positive reference group received i.v. therapy with compound 2, at 30 mg/kg once weekly for three weeks (q7d×3), in a vehicle of 7.5% ethanol and 7.5% Tween® 80 in 5% dextrose in water. […] The endpoint volume for tumor growth was 1,000 mm^3. […].

[8] = tested on: human BxPC-3 human pancreatic xenograft; format: in vivo; conditions: for T/C % values: from D33
Protocol: Method: Twenty four (24) hours after a whole body irradiation with a γ-source (7.0 Gy, Co^60, INRA, Dijon, France) 20×10^6 BxPC-3 cells in 200 μl of RPMI 1640 culture medium were subcutaneously injected in the right flank of 8 female Nude rats to generate tumor material. When the tumor size reaches approximately 1,000 mm^3, the tumors were surgically excised for implantation into recipient Nude female rats. Twenty four (24) hours after a whole body irradiation (7.0 Gy, Co^60, INRA, Dijon, France), fresh BxPC-3 tumor fragments were sc implanted in the right flank of 52 Nude female rats (1 fragment/rat) at D0 using surgical pliers and skin was stitched. The antitumor activity study was started at D21 when the mean tumor volume has reached 321.6±131.2 mm^3. Before the start of treatments, 42 tumor bearing rats out of 52 grafted were randomized into 7 groups of 6 animals.
[…]. At 7 mg/kg/inj, only two treatments were performed at D21 and D42 due to severe body weight loss.

[9] = tested on: human A375 melanoma xenograft; experiment: A375 xenograft study e209 (Example 27); conditions: 25 mg/kg iv qwk × 3
Protocol: The endpoint was a tumor volume of 2,000 mm^3 and the study was terminated on Day 56. Efficacy was assessed by tumor growth delay and the number of partial and complete regressions. Animals with a CR that persisted through Day 56 were classified as long-term tumor-free survivors (TFS).

## CC(=O)O[C@@]12CO[C@@H]1C[C@H](O)[C@@]1(C)C(=O)[C@H](O)C3=C(C)[C@@H](OC(=O)[C@H](O)[C@@H](NC(=O)OC(C)(C)C)c4ccccc4)C[C@@](O)([C@@H](OC(=O)c4ccccc4)[C@H]21)C3(C)C [Docetaxel, docetaxel, reference compound]
[1]
  IC50: 0.9 nM
[2]; MTT, 72 h, read-out: IN Vitro IC50 (nm) 786-0
  IC50: 6.2 nM
[2]; Resistance MDR1+, read-out: 786-0 Renal (Table 4, quantity not named; IC50 values as Table 2)
  IC50: 6.2 nM
[3]
  IC50: 1.3 nM
[4]
  IC50: 1.8 nM
[5]
  IC50: 3.4 nM
[6]
  % TGD: 61.94%
  MTV (n), Day 23: 166.75 (4) mm^3
  Median TTE: 23 days
  T-C: 8.8 days
[6]; n=5
  CR (complete regression): 0
  NTR NTRm: 0
  PR (partial regression): 2
  TFS (tumor-free survivor): 0
  TR (treatment-related death): 0
[7]
  # Death NTR: 0
  # Death TR: 0
[8]; 5 mg/kg/inj IV, 6 rats per group
  rats found dead: 2
[8]; 5 mg/kg/inj IV, 6 rats per group, listed as TXT
  rats found dead: two
[8]; 5 mg/kg/inj IV, at D60
  optimal T/C % value: 3.8%
[8]; 5 mg/kg/inj IV, at D81 (final sacrifice), 6 rats per group
  animals with complete tumor regression: one
[8]; 5 mg/kg/inj IV
  T/C % values: lower than 42%
[8]; 7 mg/kg/inj IV, 6 rats per group
  rats found dead: 2
[8]; 7 mg/kg/inj IV, 6 rats per group, listed as TXT
  rats found dead: Two
[8]; 7 mg/kg/inj IV, at D56
  optimal T/C % value: 12.3%
[8]; 7 mg/kg/inj IV
  T/C % values: lower than 42%
[8]; repeated IV injections at 5 and 7 mg/kg/inj
  antitumor activity: marked antitumor activity
[9]
  BW Nadir: −4.0% (25)
[9]; n=6
  CR (complete regression): 0
  NTR NTRm: 0
  PR (partial regression): 0
  TFS (tumor-free survivor): 0
  TR (treatment-related death): 0
[9]; vehicle ET
  % TGD: 49.06%
  Median TTE: 26.92 days
[9]; vehicle ET, listed as 2
  T-C (tumor growth delay): 8.9 days and 8.86 days
